Experiment [1] concerns A549 cells. As to the kind of experiment: Cell cycle analysis, propidium iodide flow cytometry, A549. In kind it is cell-based, human. As to conditions: A549, 25 μM Pt(IV)-4C or 7.5 μM Pt(IV)-5C for 5 hours, analyzed 12 hours post treatment. Here is the method:
FIG. 10 is a series of plots from a cell cycle analysis of A549 cells (top) and DU145 cells (bottom) cells treated with Pt(IV)-4C and Pt(IV)-5C. A549 cells were treated for 5 hours with control (left), 25 μM Pt(IV)-4C (center), or 7.5 μM Pt(IV)-5C (right), and analyzed 12 hours post treatment. DU145 cells were treated for 1 hour with control (left), 10 μM Pt(IV)-4C (center), or 2.5 μM Pt(IV)-5C (right), and analyzed 12 hours post treatment. Data are representative of three independent experiments.
Cells (˜50 to 60% confluent in 60 mm dishes) were treated as indicated with the platinum compound. After treatment, the floating cells were collected, and both attached and floating cells were washed 2× with PBS. The cells were resuspended in fresh medium and incubated as indicated. The cells were harvested (both the floating and attached cells were collected), counted, and pelleted. The cells were then washed two times with 5 mL PBS, fixed by resuspending in 0.1 mL of PBS and 1 mL of ice-cold 95% ethanol with gentle vortexing. Fixed cells were stored at 4° C. until analysis. For analysis, fixed cells were washed once with 1-2 mL of PBS and centrifuged at 500×g for 5 minutes. The cell pellet was resuspended in 100 μL of a 1.0% Triton X-100 buffer solution, and 100 μL of a 1.0 mg/mL RNAse solution was added and allowed to stand at room temperature for 10-15 minutes. […]

The subject of experiment [2] is A549 cells. Briefly: Annexin V/PI flow cytometry, A549. In kind it is cell-based, human. As to conditions: A549, 25 μM Pt(IV)-4C or 10 μM Pt(IV)-5C for 5 hours, analyzed 12 hours post treatment. The method, then:
FIG. 11 is a series of graphs showing flow cytometry analysis of Annexin V/PI staining in A549 cells (top) and DU145 cells (bottom) treated with Pt(IV)-4C and Pt(IV)-5C. A549 cells were treated for 5 hours with control (left), 25 μM Pt(IV)-4C (center), or 10 μM Pt(IV)-5C (right), and analyzed 12 hours post treatment. DU145 cells were treated for 1 hour with control (left), 10 μM Pt(IV)-4C (center), or 2.5 μM Pt(IV)-5C (right) and analyzed 12 hours post treatment. Q1=PI+, represents necrotic cells; Q2=Annexin V/PI+, representing late apoptotic/necrotic cells; Q3=Annexin V+, representing early apoptotic cells; Q4=AnnexinV/PI−, representing live cells. Data are representative of three independent experiments.
Cells (˜50 to 60% confluent in 60 mm dishes) were treated as indicated with the platinum compound. After treatment, the floating cells were collected, and both attached and floating cells were washed 2× with PBS. The cells were resuspended in fresh medium and incubated as indicated. The cells were harvested (both the floating and attached cells were collected), counted, and pelleted. The cells were then washed two times with 5 mL of Ca^2+ and Mg^2+ free PBS. The pellets were then washed in 2.0 mL of 1× Annexin-V Binding buffer (BD Bioscience, San Jose, CAS) and centrifuged at 500×g for 5 minutes. […] A quantitative measure of these event shifts was accomplished by gating. […]

The values that follow come from patent US10316050B2, “PT (IV) complexes containing 4,4′-disubstituted-2,2′-bipyridyl and their use in cancer therapy” (THE BOARD OF REGENTS OF THE NEVADA SYSTEM OF HIGHER …, priority 2014, dated 2019).

With `CC(=O)[O][Pt]([Cl])([Cl])[O]C(C)=O.CCCCCOc1ccnc(-c2cc(OCCCCC)ccn2)c1` [Pt(IV)-5C, [Pt(IV)Cl2(OAc)2(4,4′-dipentoxy-2,2′-bipyridine)]], the “effect on the cell cycle / sub-G1 peak” value in the experiment with A549 cells [1] is “decreased percentage of cells in the G1 phase and a corresponding increase in the sub-G1 peak”. Besides, the “Annexin V/PI staining (apoptosis)” value with A549 cells [2] is recorded as “induce apoptosis”.
As for “[Pt(IV)Cl2(OAc)2(4,4′-dibutoxy-2,2′-bipyridine)] [Pt(IV)-4C]”, the “effect on the cell cycle / sub-G1 peak” value in the experiment on A549 cells [1] was “decreased percentage of cells in the G1 phase and a corresponding increase in the sub-G1 peak”. In addition, the “Annexin V/PI staining (apoptosis)” value in the experiment on A549 cells [2] is “induce apoptosis”.
